Test results: US12240844B2 (Voronoi, Inc., priority 2019, dated 2025)

Assays:
[1] = target: T1, human GST-DYRK1A (full length) (Homo sapiens, UniProt Q13627); assay: GST-DYRK1A enzyme inhibition, ADP-Glo kinase assay; format: biochemical; details: read-out: DYRK1 IC50
T1 construct: purified human GST-DYRK1A (full length, Thermo scientifics) enzyme; GST; purchased Thermo scientifics
In short: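 Full-length human GST-DYRK1A (10 ng) incubated with 10 uM ATP and specific substrate for 1 h at 25° C in 40 mM Tris-HCl pH 7.4, 20 mM MgCl2, 0.5 mg/mL BSA, 50 uM DTT. ADP formation read by ADP-Glo luminescence; IC50 (nM) versus solvent control, triplicate.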

IL-6 = IL-6 secretion inhibition in LPS-treated THP-1 cells (ELISA); format: cell-based; details: Homo sapiens, compound 0.5 μM, LPS 500 ng/ml, 24 hours, read-out: THP1/IL6 (% inhib)
In short: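 Human monocytic THP-1 cells were pre-cultured 16 h at 37° C., then treated with compound at 0.5 μM final, followed by LPS at 500 ng/ml final. After 24 h, IL-6 and TNF-α in culture supernatant were quantified by ELISA with absorbance read at 450 nm.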

human DYRK1A and Tau = assay: Tau phosphorylation inhibition, ClariCELL Kinase Cell-Based Assay (Carnabio)
In short: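 HEK293 cells transiently expressing human DYRK1A and Tau were exposed to compound, then lysed. Released Tau was captured on plate and its phosphorylation quantified by ELISA with a phospho-Tau-specific antibody.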

Structure (SMILES)	IC50 [1] [nM]	inhibition at 0.5 µM (IL-6) [%]	inhibition at 0.25 µM (human DYRK1A and Tau) [%]	inhibition at 0.5 µM (human DYRK1A and Tau) [%]	inhibition at 1 µM (human DYRK1A and Tau) [%]
CCNc1cc(Nc2ccc(C(=O)N3CCC(N4CCOCC4)CC3)c3c2OCC3)nc2[nH]cc(C(F)(F)F)c12 [Example 90, (7-((4-(ethylamino)-3-(trifluoromethyl)-1H-pyrrolo[2,3-b]pyridin-6-yl)amino)-2,3-dihydrobenzofuran-4-yl)(4-morpholinopiperidin-1-yl)methanone]	< 100	12.2	23.3	51.7	70.3
O=C(c1ccc(Nc2cc(C3CC3)c3c(C(F)(F)F)c[nH]c3n2)c2c1CCO2)N1CCC(N2CCOCC2)CC1 [Example 93, (7-((4-cyclopropyl-3-(trifluoromethyl)-1H-pyrrolo[2,3-b]pyridin-6-yl)amino)-2,3-dihydrobenzofuran-4-yl)(4-morpholinopiperidin-1-yl)mthanone]	–	–	12	28.8	50.1
O=C(c1ccc(Nc2cc(NC3CC3)c3c(C(F)(F)F)c[nH]c3n2)c2c1CCO2)N1CCC(N2CCOCC2)CC1 [Example 92, (7-((4-(cyclopropylamino)-3-(trifluoromethyl)-1H-pyrrolo[2,3-b]pyridin-6-yl)amino)-2,3-dihydrobenzofuran-4-yl)(4-morpholinopiperidin-1-yl)methanone]	< 100	–	27.5	52.4	77.2
COCCNc1cc(Nc2ccc(P3(=O)CCN(C4CC4)CC3)cc2OC)nc2[nH]cc(C#N)c12 [Example 148, 6-((4-(1-cyclopropyl-4-oxido-1,4-azaphosphinan-4-yl)-2-methoxyphenyl)amino)-4-((2-methoxyethyl)amino)-1H-pyrrolo[2,3-b]pyridine-3-carbonitrile]	301 to 1000	–	–	–	–
CCNc1cc(Nc2ccc(P3(=O)CCN(C4CCOCC4)CC3)cc2OC)nc2[nH]cc(C(F)(F)F)c12 [Example 94, 4-(4-((4-(ethylamino)-3-(trifluoromethyl)-1H-pyrrolo[2,3-b]pyridin-6-yl)amino)-3-methoxyphenyl)-1-(tetrahydro-2H-pyran-4-yl)-1,4-azaphosphinane 4-oxide]	101 to 300	21	22.2	30.5	53.2
CNc1cc(Nc2ccc(S(=O)(=O)N3CCC(N4CCOCC4)CC3)c3c2OCCO3)nc2[nH]cc(C(F)(F)F)c12 [Example 233, N^4-methyl-N^6-(8-((4-morpholinopiperidin-1-yl)sulfonyl)-2,3-dihydrobenzo [b] [1,4]dioxin-5-yl)-3-(trifluoromethyl)-1H-pyrrolo[2,3-b]pyridine-4,6-diamine]	101 to 300	4.3	17.7	34.6	70.3
O=C(c1ccc(Nc2cc(C3CC3)c3c(C(F)(F)F)c[nH]c3n2)c2c1OCCO2)N1CCOCC1 [Example 220, (8-((4-cyclopropyl-3-(trifluoromethyl)-1H-pyrrolo[2,3-b]pyridin-6-yl)amino)-2,3-dihydrobenzo[b] [1,4]dioxin-5-yl)(morpholino) methanone]	301 to 1000	–	–	–	–
COCCNc1cc(Nc2ccc(S(=O)(=O)N3CCC(N4CCOCC4)CC3)c3c2OCCO3)nc2[nH]cc(C(F)(F)F)c12 [Example 97, N^4-(2-methoxyethyl)-N^6-(8-((4-morpholonopiperidin-1-yl)sulfonyl)-2,3-dihydrobenzo[b] [1,4]dioxin-5-yl)-3-(trifluoromethyl)-1H-pyrrolo[2,3-b]pyridine-4,6-diamine]	101 to 300	17	22.3	42	67.2
CNc1cc(Nc2ccc(C(=O)N3CCC(N4CCOCC4)CC3)c3c2OCC3)nc2[nH]cc(C(F)(F)F)c12 [Example 234, (7-((4-(methylamino)-3-(trifluoromethyl)-1H-pyrrolo[2,3-b]pyridin-6-yl)amino)-2,3-dihydrobenzofuran-4-yl)(4-morpholinopiperidin-1-yl)methanone]	< 100	50.9	41.8	65.3	81.5
CCNc1cc(Nc2ccc(C(=O)N3C[C@@H]4C[C@H]3CO4)c3c2OCCO3)nc2[nH]cc(C(F)(F)F)c12 [Example 44, ((1S,4S)-2-oxa-5-azabicyclo[2.2.1]heptan-5-yl)(8-((4-(ethylamino)-3-(trifluoromethyl)-1H-pyrrolo[2,3-b]pyridin-6-yl)amino)-2,3-dihydrobenzo[b] [1,4]dioxin-5-yl)methanone]	< 100	47.9	–	–	–
COc1cc(S(=O)(=O)N2CCC(N3CCOCC3)CC2)ccc1Nc1cc(NCCS(C)(=O)=O)c2c(C(F)(F)F)c[nH]c2n1 [Example 194, N^6-(2-methoxy-4-((4-morpholinopiperidin-1-yl)sulfonyl)phenyl)-N^4-(2-(methylsulfonyl)ethyl)-3-(trifluoromethyl)-1H-pyrrolo[2,3-b]pyridine-4,6-diamine]	< 100	6.3	–	–	–
CCNc1cc(Nc2cc(F)c(S(=O)(=O)N3CCC(N4CCOCC4)CC3)cc2OC)nc2[nH]cc(C(F)(F)F)c12 [Example 266, N^4-ethyl-N^6-(5-fluoro-2-methoxy-4-((4-morpholinopiperidin-1-yl)sulfonyl)phenyl)-3-(trifluoromethyl)-1H-pyrrolo[2,3-b]pyridine-4,6-diamine]	301 to 1000	–	–	–	–
CNc1cc(Nc2ccc(S(=O)(=O)N3CCC(N4C[C@H]5C[C@@H]4CO5)CC3)cc2OC)nc2[nH]cc(C(F)(F)F)c12 [Example 243, N^6-(4-((4-((1R,4R)-2-oxa-5-azabicyclo[2.2.1]heptan-5-yl)piperidin-1-yl)sulfonyl)-2-methoxyphenyl)-N^4-methyl-3-(trifluoromethyl)-1H-pyrrolo[2,3-b]pyridine-4,6-diamine]	< 100	32.3	64.4	85	104
CCNc1cc(Nc2ccc(P3(=O)CCN(C(C)=O)CC3)cc2OC)nc2[nH]cc(C(F)(F)F)c12 [Example 42, 1-(4-(4-((4-(ethylamino)-3-(trifluoromethyl)-1H-pyrrolo[2,3-b]pyridin-6-yl)amino)-3-methoxyphenyl)-4-oxido-1,4-azaphosphinan-1-yl)ethan-1-one]	< 100	48.3	–	–	–
CCNc1cc(Nc2ccc(C(=O)N3CCC(N4CCOCC4)CC3)c3c2OCO3)nc2[nH]cc(C(F)(F)F)c12 [Example 37, (7-((4-(ethylamino)-3-(trifluoromethyl)-1H-pyrrolo[2,3-b]pyridin-6-yl)amino)benzo[d][1,3]dioxol-4-yl)(4-morpholinopiperidin-1-yl)methanone]	< 100	–	–	–	–
CNc1cc(Nc2ccc(C(=O)N3CCC(N4C[C@@H]5C[C@H]4CO5)CC3)c3c2OCC3)nc2[nH]cc(C(F)(F)F)c12 [Example 241, (4-((1S,4S)-2-oxa-5-azabicyclo[2.2.1]heptan-5-yl)piperidin-1-yl)(7-((4-(methylamino)-3-(trifluoromethyl)-1H-pyrrolo[2,3-b]pyridin-6-yl)amino)-2,3-dihydrobenzofuran-4-yl)methanone]	< 100	–	–	–	–
CNc1cc(Nc2ccc(C(=O)N3CC[C@@H](N4CCOCC4)C3)c3c2OCC3)nc2[nH]cc(C(F)(F)F)c12 [Example 214, (R)-(7-((4-(methylamino)-3-(trifluoromethyl)-1H-pyrrolo[2,3-b]pyridin-6-yl)amino)-2,3-dihydrobenzofuran-4-yl)(3-morpholinopyrrolidin-1-yl)methanone]	< 100	–	33.9	60.1	76.8
COCCNc1cc(Nc2ccc(C(=O)N3CCC(N4CCOCC4)CC3)c3c2OCC3)nc2[nH]cc(C(F)(F)F)c12 [Example 55, (7-((4-((2-methoxyethyl)amino)-3-(trifluoromethyl)-1H-pyrrolo[2,3-b]pyridin-6-yl)amino)-2,3-dihydrobenzofuran-4-yl)(4-morpholinopiperidin-1-yl)methanone]	< 100	–	–	–	–
COc1cc(S(=O)(=O)N2CCOCC2)ccc1Nc1cc(C2CC2)c2c(C#N)c[nH]c2n1 [Example 227, 4-cyclopropyl-6-((2-methoxy-4-(morpholinosulfonyl)phenyl)amino)-1H-pyrrolo[2,3-b]pyridine-3-carbonitrile]	301 to 1000	–	–	–	–
O=C(c1ccc(Nc2cc(C3CC3)c3c(C(F)(F)F)c[nH]c3n2)c2c1CCO2)N1CCOCC1 [Example 91, (7-((4-cyclopropyl-3-(trifluoromethyl)-1H-pyrrolo[2,3-b]pyridin-6-yl)amino)-2,3-dihydrobenzofuran-4-yl)(morpholino) methanone]	–	52.5	12.9	33.1	44.3
CNc1cc(Nc2ccc(P3(=O)CCN(C4CC4)CC3)cc2OC)nc2[nH]cc(C#N)c12 [Example 146, 6-((4-(1-cyclopropyl-4-oxido-1,4-azaphosphinan-4-yl)-2-methoxyphenyl)amino)-4-(methylamino)-1H-pyrrolo[2,3-b]pyridine-3-carbonitrile]	301 to 1000	–	–	–	–
